Laboratory results taken from PubChem BioAssay (NCI).
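The concentration for 50% growth inhibition is given as GI50. TGI: total growth inhibition.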

Key:
Experiment in all cases: growth of human tumour cells (NCI), 384-well format
UO-31 renal = test system: UO-31 renal
RPMI-8226 leukemia = test system: RPMI-8226 leukemia
SF-539 CNS = test system: SF-539 CNS
CCRF-CEM leukemia = test system: CCRF-CEM leukemia
NCI-H460 NSCLC = test system: NCI-H460 NSCLC
PC-3 prostate = test system: PC-3 prostate
T-47D breast = test system: T-47D breast
LOX IMVI melanoma = test system: LOX IMVI melanoma
CAKI-1 renal = test system: CAKI-1 renal
SK-MEL-28 melanoma = test system: SK-MEL-28 melanoma
HCT-15 colon = test system: HCT-15 colon
UACC-257 melanoma = test system: UACC-257 melanoma
OVCAR-4 ovarian = test system: OVCAR-4 ovarian
SW-620 colon = test system: SW-620 colon
UACC-62 melanoma = test system: UACC-62 melanoma
NCI/ADR-RES ovarian = test system: NCI/ADR-RES ovarian
HOP-62 NSCLC = test system: HOP-62 NSCLC
A549 NSCLC = test system: A549 NSCLC
MOLT-4 leukemia = test system: MOLT-4 leukemia
A498 renal = test system: A498 renal
MDA-MB-435 melanoma = test system: MDA-MB-435 melanoma
SNB-19 CNS = test system: SNB-19 CNS
TK-10 renal = test system: TK-10 renal
SK-MEL-2 melanoma = test system: SK-MEL-2 melanoma
OVCAR-5 ovarian = test system: OVCAR-5 ovarian
HCT-116 colon = test system: HCT-116 colon
KM12 colon = test system: KM12 colon
HOP-92 NSCLC = test system: HOP-92 NSCLC
M14 melanoma = test system: M14 melanoma
HL-60(TB) leukemia = test system: HL-60(TB) leukemia
ACHN renal = test system: ACHN renal
U251 glioblastoma = test system: U251 glioblastoma
K-562 leukemia = test system: K-562 leukemia
OVCAR-8 ovarian = test system: OVCAR-8 ovarian
SK-OV-3 ovarian = test system: SK-OV-3 ovarian
786-0 renal = test system: 786-0 renal
NCI-H322M lung = test system: NCI-H322M lung
NCI-H226 lung = test system: NCI-H226 lung
IGROV1 ovarian = test system: IGROV1 ovarian
SN12C renal = test system: SN12C renal
SF-268 CNS = test system: SF-268 CNS
HT29 colon = test system: HT29 colon
DU-145 prostate = test system: DU-145 prostate
COLO 205 colon = test system: COLO 205 colon
HCC-2998 colon = test system: HCC-2998 colon
MDA-MB-231 breast = test system: MDA-MB-231 breast
NCI-H23 lung = test system: NCI-H23 lung
OVCAR-3 ovarian = test system: OVCAR-3 ovarian
SF-295 CNS = test system: SF-295 CNS
MALME-3M melanoma = test system: MALME-3M melanoma

SMILES: CO[C@H]1C[C@@H]2CC[C@@H](C)[C@@](O)(O2)C(=O)C(=O)N2CCCC[C@H]2C(=O)O[C@H]([C@H](C)C[C@@H]2CC[C@@H](OP(C)(C)=O)[C@H](OC)C2)CC(=O)[C@H](C)/C=C(\C)[C@@H](O)[C@@H](OC)C(=O)[C@H](C)C[C@H](C)/C=C/C=C/C=C/1C
- GI50 (UO-31 renal): < 0.01 µM
- TGI (UO-31 renal): 0.0198 µM
- GI50 (RPMI-8226 leukemia): < 0.01 µM
- GI50 (SF-539 CNS): < 0.01 µM
- TGI (SF-539 CNS): 20.7 µM
- GI50 (CCRF-CEM leukemia): 0.0126 µM
- TGI (CCRF-CEM leukemia): 17 µM
- GI50 (NCI-H460 NSCLC): < 0.01 µM
- TGI (NCI-H460 NSCLC): 17.4 µM
- GI50 (PC-3 prostate): 1.06 µM
- TGI (PC-3 prostate): 21.3 µM
- GI50 (T-47D breast): < 0.01 µM
- TGI (T-47D breast): 25 µM
- GI50 (LOX IMVI melanoma): 17.5 µM
- TGI (LOX IMVI melanoma): 31.4 µM
- GI50 (CAKI-1 renal): 10.5 µM
- TGI (CAKI-1 renal): 23.1 µM
- GI50 (SK-MEL-28 melanoma): 12.2 µM
- TGI (SK-MEL-28 melanoma): 24.7 µM
- GI50 (HCT-15 colon): 11.4 µM
- TGI (HCT-15 colon): 23.9 µM
- GI50 (UACC-257 melanoma): 15.3 µM
- TGI (UACC-257 melanoma): 28.7 µM
- GI50 (OVCAR-4 ovarian): 12 µM
- TGI (OVCAR-4 ovarian): 25 µM
- GI50 (SW-620 colon): 14.9 µM
- TGI (SW-620 colon): 28.6 µM
- GI50 (UACC-62 melanoma): 7.86 µM
- TGI (UACC-62 melanoma): 21.6 µM
- GI50 (NCI/ADR-RES ovarian): 15.4 µM
- TGI (NCI/ADR-RES ovarian): 38.7 µM
- GI50 (HOP-62 NSCLC): 0.491 µM
- TGI (HOP-62 NSCLC): 21.7 µM
- GI50 (A549 NSCLC): < 0.01 µM
- TGI (A549 NSCLC): 39.9 µM
- GI50 (MOLT-4 leukemia): < 0.01 µM
- TGI (MOLT-4 leukemia): 11.7 µM
- GI50 (A498 renal): < 0.01 µM
- TGI (A498 renal): 17.6 µM
- GI50 (MDA-MB-435 melanoma): 14.2 µM
- TGI (MDA-MB-435 melanoma): 27.9 µM
- GI50 (SNB-19 CNS): 13.5 µM
- TGI (SNB-19 CNS): 26.9 µM
- GI50 (TK-10 renal): 11.6 µM
- TGI (TK-10 renal): 28.6 µM
- GI50 (SK-MEL-2 melanoma): 11 µM
- TGI (SK-MEL-2 melanoma): 23 µM
- GI50 (OVCAR-5 ovarian): 15.3 µM
- TGI (OVCAR-5 ovarian): 29.8 µM
- GI50 (HCT-116 colon): 12.4 µM
- TGI (HCT-116 colon): 25.2 µM
- GI50 (KM12 colon): 13.4 µM
- TGI (KM12 colon): 26.6 µM
- GI50 (HOP-92 NSCLC): 12.5 µM
- TGI (HOP-92 NSCLC): 25.5 µM
- GI50 (M14 melanoma): 10.4 µM
- TGI (M14 melanoma): 22.2 µM
- GI50 (HL-60(TB) leukemia): 15.3 µM
- TGI (HL-60(TB) leukemia): 28.7 µM
- GI50 (ACHN renal): 12.4 µM
- TGI (ACHN renal): 25.2 µM
- GI50 (U251 glioblastoma): 4.92 µM
- TGI (U251 glioblastoma): 21.3 µM
- GI50 (K-562 leukemia): 11.2 µM
- TGI (K-562 leukemia): 23.4 µM
- GI50 (OVCAR-8 ovarian): 11 µM
- TGI (OVCAR-8 ovarian): 23.2 µM
- GI50 (SK-OV-3 ovarian): < 0.01 µM
- TGI (SK-OV-3 ovarian): 20.2 µM
- GI50 ([…]-0 renal): 11.2 µM
- TGI (786-0 renal): 23.5 µM
- GI50 (NCI-H322M lung): < 0.01 µM
- TGI (NCI-H322M lung): 25.3 µM
- GI50 (NCI-H226 lung): 12.4 µM
- TGI (NCI-H226 lung): 25.3 µM
- GI50 (IGROV1 ovarian): < 0.01 µM
- TGI (IGROV1 ovarian): 16 µM
- GI50 (SN12C renal): 14 µM
- TGI (SN12C renal): 27.2 µM
- GI50 (SF-268 CNS): 12.5 µM
- TGI (SF-268 CNS): 25.3 µM
- GI50 (HT29 colon): 12.5 µM
- TGI (HT29 colon): 25.2 µM
- GI50 (DU-145 prostate): 11.3 µM
- TGI (DU-145 prostate): 26.8 µM
- GI50 (COLO 205 colon): 13.5 µM
- TGI (COLO 205 colon): 26.5 µM
- GI50 (HCC-2998 colon): 12.3 µM
- TGI (HCC-2998 colon): 24.9 µM
- GI50 (MDA-MB-231 breast): 12 µM
- TGI (MDA-MB-231 breast): 24.4 µM
- GI50 (NCI-H23 lung): 19.5 µM
- TGI (NCI-H23 lung): 35.2 µM
- GI50 (OVCAR-3 ovarian): 11.2 µM
- TGI (OVCAR-3 ovarian): 23.4 µM
- GI50 (SF-295 CNS): < 0.01 µM
- TGI (SF-295 CNS): 16.6 µM
- GI50 (MALME-3M melanoma): < 0.01 µM
- TGI (MALME-3M melanoma): 21.2 µM
